Measurements: patent publication EP4745134A1 (Jiangsu Yahong Meditech Co., Ltd., priority 2023, dated 2025)
Where two headings read alike, the source gives them in different places.

Experiments:
HCT116-WT cells = assay: Inhibitory activity against cell proliferation (CellTiter Glo, 6 days), HCT116-WT; assay type: cell-based; conditions: 144 h, HCT116-WT cells, 6 days, CellTiter Glo; read-out: HCT116-WT IC50
In short: (§1)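 Luminescence read-out (CellTiter Glo, 10 min shaking at room temperature) after 6 days of compound exposure; IC50 fitted against DMSO controls. Top dose 10000 nM, 4-fold steps, 8 points; 250 cells/well in McCoy's 5A + 10% FBS.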

PRMT5-MTA = PRMT5-MTA (Homo sapiens, UniProt O14744); assay: Enzymatic inhibitory activity against PRMT5-MTA (AlphaScreen); assay type: biochemical
Sequence of PRMT5-MTA (O14744 whole entry): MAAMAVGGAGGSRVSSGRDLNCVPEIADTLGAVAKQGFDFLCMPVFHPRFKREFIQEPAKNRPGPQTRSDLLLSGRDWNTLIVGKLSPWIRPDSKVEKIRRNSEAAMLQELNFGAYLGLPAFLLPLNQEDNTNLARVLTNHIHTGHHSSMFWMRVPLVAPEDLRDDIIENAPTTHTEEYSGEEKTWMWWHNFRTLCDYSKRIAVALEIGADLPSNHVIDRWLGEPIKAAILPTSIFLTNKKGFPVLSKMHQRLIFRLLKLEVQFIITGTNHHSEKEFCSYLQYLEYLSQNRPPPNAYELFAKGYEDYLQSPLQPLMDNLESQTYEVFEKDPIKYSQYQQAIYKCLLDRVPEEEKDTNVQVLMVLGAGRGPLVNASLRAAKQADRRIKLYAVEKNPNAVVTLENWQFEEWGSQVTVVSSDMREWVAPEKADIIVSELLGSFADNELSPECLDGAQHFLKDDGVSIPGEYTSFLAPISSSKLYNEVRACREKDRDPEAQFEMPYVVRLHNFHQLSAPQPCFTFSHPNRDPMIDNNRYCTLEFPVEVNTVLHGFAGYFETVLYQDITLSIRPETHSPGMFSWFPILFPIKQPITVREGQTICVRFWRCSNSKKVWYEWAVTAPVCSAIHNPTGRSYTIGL
Sequence of PRMT5-MTA (Q9BQA1 whole entry partner): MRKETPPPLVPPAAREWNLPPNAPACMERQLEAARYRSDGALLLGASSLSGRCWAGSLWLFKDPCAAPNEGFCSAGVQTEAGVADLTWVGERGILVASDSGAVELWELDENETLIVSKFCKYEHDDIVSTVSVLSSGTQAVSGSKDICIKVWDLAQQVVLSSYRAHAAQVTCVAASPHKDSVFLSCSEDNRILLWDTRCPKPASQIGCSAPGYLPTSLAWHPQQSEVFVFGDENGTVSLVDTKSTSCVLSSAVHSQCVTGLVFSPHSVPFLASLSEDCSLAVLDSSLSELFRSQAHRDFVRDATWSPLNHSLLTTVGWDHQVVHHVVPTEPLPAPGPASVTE
In short: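 PRMT5/[…] (1 nM) was preincubated for 30 min at room temperature with 1 µM […] and 2.5 µM SAM, then exposed to compound (10-point, 3-fold from 1000 nM) for 15 min at 23 °C. Histone H4 substrate (5 nM) was added and reacted for 45 min at 23 °C. Symmetric dimethyl-R3 H4 was detected by AlphaScreen and IC50 calculated.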

HCT116 MTAP KO cells = assay: Inhibitory activity against cell proliferation (CellTiter Glo, 6 days), HCT116 MTAP KO; assay type: cell-based; conditions: for IC50: Homo sapiens, HCT-116, 144 h, HCT116 MTAP KO cells, 6 days, CellTiter Glo, read-out: HCT116 MTAP KO IC50; for Selectivity HCT 116-WT/ HCT116 MTAP KO: ratio of IC50 HCT116-WT / HCT116 MTAP KO
In short: as §1

SMILES	IC50 (HCT116-WT cells)	IC50 (PRMT5-MTA; read-out: IC50)	IC50 (HCT116 MTAP KO cells)	Selectivity HCT 116-WT/ HCT116 MTAP KO (HCT116 MTAP KO cells)	IC50 (PRMT5-MTA)
Cc1cc2cc(C(=O)N(Cc3ccc(Br)cc3F)N(C)c3nccc4nccnc34)ccc2nc1N [Example 72, 2-amino-N-(4-bromo-2-fluorobenzyl)-N', 3-dimethyl-N'-(pyrido[3,4-b]pyrazin-5-yl)quinoline-6-carbohydrazide]	1610 nM	2.7 nM	92 nM	17.50	
Cc1cc2cc(C(=O)N(Cc3ccc(C(F)(F)F)cc3F)N(C)c3ncccn3)ccc2nc1N [Example 90, 2-amino-N-(2-fluoro-4-(trifluoromethyl)benzyl)-N',3-dimethyl-N'-(pyrimidin-2-yl) quinoline-6-carbohydrazide]	2170 nM	4.5 nM	98 nM	22.13	
Cc1cc2nc(N)c3cnn(C)c3c2cc1C(=O)N1CC(CC(F)(F)F)CN1c1ncccc1F (stereo not shown) [Example 408]	203 nM		10 nM	20.30	4.8 nM
CCC1(F)CN(C(=O)c2cc3c(cc2C)nc(N)c2cnn(C)c23)N(c2ncccc2F)C1 (stereo not shown) [Example 423, (4-amino-1,7-dimethyl-1H-pyrazolo[4,3-c]quinolin-8-yl)(4-ethyl-4-fluoro-2-(3-fluoropyridin-2-yl)pyrazolidin-1-yl)methanone]	682 nM	6.7 nM	25 nM	27.28	
Cc1cc2nc(N)c3cnn(C)c3c2cc1C(=O)N1CC(C)CN1c1cccc(F)n1 (stereo not shown) [Example 360, (4-amino-1,7-dimethyl-1H-pyrazolo[4,3-c]quinolin-8-yl)(2-(6-fluoropyridin-2-yl)-4-methylpyrazolidin-1-yl)methanone]	1170 nM	5.2 nM	23 nM	50.74	
Cn1ncc2c(N)nc3cc(F)c(C(=O)N4CCCN4c4ccc(C(F)(F)F)cn4)cc3c21 [Example 340, (4-amino-7-fluoro-1-methyl-1H-pyrazolo [4,3-c]quinolin-8-yl)(2-(5-(trifluoromethyl)pyridin-2-yl)pyrazolidin-1-yl)methanone]	> 10000 nM	4.2 nM	295 nM		
Cc1cc2cc(C(=O)N(Cc3ccc(C(F)(F)F)cn3)N(C)c3nccc4c3ncn4C)ccc2nc1N [Example 265, 2-amino-N',3-dimethyl-N'-(1-methyl-1H-imidazo[4,5-c]pyridin-4-yl)-N-((5-(trifluoromethyl)pyridin-2-yl)methyl)quinoline-6-carbohydrazide]	549 nM	2 nM	38 nM	14.45	
Cc1cc2cc(C(=O)N(Cc3ccc(C(F)F)cn3)N(C)c3ncccn3)ccc2nc1N [Example 273, 2-amino-N-((5-(difluoromethyl)pyridin-2-yl)methyl)-N',3-dimethyl-N'-(pyrimidin-2-yl)quinoline-6-carbohydrazide]	2280 nM	2.8 nM	78 nM	29.27	
Cc1cc2cc(C(=O)N(Cc3ccc(C(C)F)cn3)N(C)c3ncccn3)ccc2nc1N (stereo not shown) [Example 292, 2-amino-N-((5-(1-fluoroethyl)pyridin-2-yl)methyl)-N',3-dimethyl-N'-(pyrimidin-2-yl)q uinoline-6-carbohydrazide]	1520 nM	1.4 nM	50 nM	30.30	
Cc1cc2cc(C(=O)N(Cc3ccc(C4CC4)cn3)N(C)c3ncccn3)ccc2nc1N [Example 153, 2-amino-N-((5-cyclopropylpyridin-2-yl)methyl)-N',3-dimethyl-N'-(pyrimidin-2-yl)quinoline-6-carbohydrazide]	1060 nM	1.6 nM	20 nM	52.80	
Cc1cc2cc(C(=O)N(Cc3ccc(C(F)(F)F)cn3)n3ccc4cccnc43)ccc2nc1N [Example 21, 2-amino-3-methyl-N-(1H-pyrrolo[2,3-b]pyridin-1-yl)-N-((5-(trifluoromethyl)pyridin-2-yl)methyl)quinoline-6-carboxamide]	2340 nM	1.9 nM	85 nM	27.53	
COC1CN(C(=O)c2cc3c(cc2C)nc(N)c2cnn(C)c23)N(c2ncc(Cl)cc2F)C1 (stereo not shown) [Example 441, (4-amino-1,7-dimethyl-1H-pyrazolo[4,3-c]quinolin-8-y1)(2-(5-chloro-3-fluoropyridin-2-yl)-4-methoxypyrazolidin-1-yl)met hanone]	1790 nM	7.2 nM	48 nM	37.31	
Cc1cc2cc(C(=O)N(Cc3ccc(C(F)(F)F)cn3)N(C)c3nccc4nc(C)c(C)nc34)ccc2nc1N [Example 272, 2-amino-N'-(2,3-dimethylpyrido[3,4-b]pyrazin-5-yl)-N',3-dimethyl-N-((5-(trifluoromethyl)pyridin-2-yl)methyl)quinoline-6-carbohydrazide]	3180 nM	2.6 nM	242 nM	13.13	
Cc1cc2cc(C(=O)N(Cc3ccc(C(F)(F)F)cn3)N(C)c3cccc(C(F)(F)F)n3)ccc2nc1N [Example 88, 2-amino-N',3-dimethyl-N'-(6-(trifluoromethyl)pyridin-2-yl)-N-((5-(trifluoromethyl)pyridin-2-yl)methyl)quinoline-6-carbohydrazide]	2030 nM	2.5 nM	176 nM	11.56	
CN(c1ncccn1)N(Cc1ccc(C(F)(F)F)cn1)C(=O)c1ccc2nc(N)c(Br)cc2c1 [Example 303, 2-amino-3-bromo-N'-methyl-N'-(pyrimidin-2-yl)-N-((5-(trifluoromethyl)pyridin-2-yl)methyl)quinoline-6-carbohydrazide]	2990 nM	3 nM	110 nM	27.20	
Cc1cc2cc(C(=O)N(Cc3ccc(C4CC4)cn3)N(C)c3ncccc3C(F)(F)F)ccc2nc1N [Example 196, 2-amino-N-((5-cyclopropylpyridin-2-yl)methyl)-N',3-dimethyl-N'-(3-(trifluoromethyl)pyridin-2-yl)quinoline-6-carbohydrazide]	441 nM	5.7 nM	34 nM	12.97	
Cc1cc2nc(N)c3cnn(C)c3c2cc1C(=O)N1CC(C)CN1c1ncncc1F (stereo not shown) [Example 395, (4-amino-1,7-dimethyl-1H-pyrazolo[4,3-c]quinolin-8-yl)(2-(5-fluoropyrimidin-4-yl)-4-methylpyrazolidin-1-yl)methanone]	2710 nM	4.9 nM	66 nM	41.05	
Cc1cc2nc(N)c3cnn(C)c3c2cc1C(=O)N1CCC(C)N1c1ncccn1 (stereo not shown) [Example 374, (4-amino-1,7-dimethyl-1H-pyrazolo[4,3-c]quinolin-8-yl)(3-methyl-2-(pyrimidin-2-yl)pyrazolidin-1-yl)methanone]	> 10000 nM	8.1 nM	210 nM		
CCOC1CN(C(=O)c2cc3c(cc2C)nc(N)c2cnn(C)c23)N(c2ncccc2F)C1 (stereo not shown) [Example 453, (4-amino-1,7-dimethyl-1H-pyrazolo[4,3-c]quinolin-8-yl)(4-ethoxy-2-(3-fluoropyridin-2-yl)pyrazolidin-1-yl)methanone]	523 nM	5.2 nM	23 nM	22.74	
Cc1cc2cc(C(=O)N(Cc3ccc(C(F)(F)F)cn3)N(C)c3ncccc3C(F)F)ccc2nc1N [Example 117, 2-amino-N'-(3-(difluoromethyl)pyridin-2-yl)-N',3-dimethyl-N-((5-(trifluoromethyl)pyridin-2-yl)methyl)quinoline-6-carbohydrazide]	1250 nM	1.8 nM	89 nM	14.00	
Cc1cc2cc(C(=O)N(Cc3ccc(-c4cnn(C)c4)cn3)N(C)c3nccc4nccnc34)ccc2nc1N [Example 162, 2-amino-N',3-dimethyl-N-((5-(1-methyl-1H-pyrazol-4-yl)pyridin-2-yl)methyl)-N'-(pyrido[3,4-b]pyrazin-5-yl)quinoline-6-carbohydrazide]	850 nM	5.4 nM	36 nM	23.61	
